Source: patent US20250042912A1, “NOVEL NON-FLUORINATED QUINOLONE COMPOUND AND USE THEREOF” (priority 2021, published 2025)
Counter-ions that a name gives are not always drawn.

Experiment: Pharmacokinetic evaluation in mice after intravenous and oral administration
Assay type: in vivo
Details: mouse, plasma, male CD-1 mice
Description: CD-1 mice (male, Beijing Vital River Laboratory Animal Technology Co., Ltd.)
The pharmacokinetic characteristics of rodents after intravenous and oral administration of the compounds were tested using a standard protocol. In the experiment, the candidate compounds were prepared into clear solutions and administered to mice by single intravenous injection and oral administration. The intravenous and oral vehicles were mixed vehicles of 10% DMSO+90% (20% SBE-β-CD). This project included four male CD-1 mice, two of which were administered intravenously at a dosage of 1 mg/kg, and plasma samples were collected at 0.083 hours, 0.25 hours, 0.5 hours, 1 hour, 2 hours, 4 hours, 8 hours, and 24 hours after administration; the other two mice were orally administered by gavage at a dosage of 2 mg/kg, and plasma samples were collected at 0.25 hours, 0.5 hours, 1 hour, 2 hours, 4 hours, 8 hours, and 24 hours after administration. Blood samples were placed on ice after collection, and plasma was separated by centrifugation within 1 hour (centrifugation conditions: 6000 g, 3 minutes, 2-8° C.). Plasma samples were stored in a refrigerator at −80° C. before analysis. Plasma concentrations were quantitatively analyzed using LC-MS/MS analysis method, and pharmacokinetic parameters were calculated such as peak concentration (Cmax), clearance rate (CL), half-life (T1/2), […] (Vdss), area under concentration-time curve (AUC0-last), and bioavailability (F), etc.

bioavailability (IV 1 mg/kg, oral gavage 2 mg/kg, read-out: Bioavailability F): 132%
Cmax (IV 1 mg/kg, oral gavage 2 mg/kg, route of Cmax not given, read-out: Peak concentration Cmax): 683 nM
clearance (IV 1 mg/kg, read-out: Clearance rate CL): 132 mL/min/kg
half-life (IV 1 mg/kg, read-out: Half-life T1/2 (IV) (converted)): 20.5 min
Vd (IV 1 mg/kg, read-out: Tissue distribution Vdss): 3.04 L/kg
AUC(0-t) (oral gavage 2 mg/kg, read-out: Area under concentration-time curve AUC0-last PO): 0.924 µM·h
Structure (SMILES): Nc1cc2c(cn1)-c1ccc3c(=O)c(C(=O)O)cn(C4CC4)c3c1COC2 [Hydrochloride of Compound 7]
